According to patent publication US20220380383A1, “NEUROPROTECTIVE PDI MODULATING SMALL MOLECULES AND METHODS OF USE THEREOF” (THE TRUSTEES OF COLUMBIA UNIVERSITY IN THE CITY OF NEW YORK, priority 2018, published 2022):

Tests used:
[1] = molecular target: T1, INSR (Homo sapiens, UniProt P06213); assay: Safety47 panel kinase INSR; type: biochemical; conditions: Inhibitor mode; 3 μM
T1 construct: CEREP (CRO panel)
Source text: (§1) LOC14 was also submitted for testing in CEREP's Safety47 panel. CEREP is a CRO specializing in preclinical research, discovery and development of new pharmaceutical drugs.

[2] = molecular target: T2, VEGFR2 (Homo sapiens, UniProt P35968); assay: Safety47 panel kinase VEGFR2; type: biochemical; conditions: Inhibitor mode; 3 μM
T2 construct: CEREP (CRO, Safety47 panel)
Source text: as §1

[3] = molecular target: Adenosine A1 (Homo sapiens, UniProt P30542); assay: Off-target panel, Adenosine A1; type: binding; conditions: Conc. 3 μM
[4] = molecular target: Dopamine D2S (Homo sapiens, UniProt P14416); assay: Off-target panel, Dopamine D2S; type: binding; conditions: Conc. 3 μM
[5] = molecular target: T3, HTR3A (Homo sapiens, UniProt P46098); assay: Safety47 panel ion channel HTR3A; type: cell-based; conditions: 3 μM
T3 construct: CEREP (CRO panel)
T3 sequence (P46098 24-478): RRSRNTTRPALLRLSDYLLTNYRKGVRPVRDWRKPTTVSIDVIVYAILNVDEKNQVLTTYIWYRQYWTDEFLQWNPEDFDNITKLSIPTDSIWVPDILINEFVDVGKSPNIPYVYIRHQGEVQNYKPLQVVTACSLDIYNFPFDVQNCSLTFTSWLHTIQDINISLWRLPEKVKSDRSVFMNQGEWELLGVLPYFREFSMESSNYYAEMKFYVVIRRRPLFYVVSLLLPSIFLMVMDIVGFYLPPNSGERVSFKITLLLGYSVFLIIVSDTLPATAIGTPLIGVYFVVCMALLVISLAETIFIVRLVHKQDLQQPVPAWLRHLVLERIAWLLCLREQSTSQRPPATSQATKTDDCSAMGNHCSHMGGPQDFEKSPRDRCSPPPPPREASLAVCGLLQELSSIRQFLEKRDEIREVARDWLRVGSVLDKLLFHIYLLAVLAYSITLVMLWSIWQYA
Source text: as §1

[6] = molecular target: T4, NAV1.5 (Homo sapiens, UniProt Q14524); assay: Safety47 panel ion channel NAV1.5; type: cell-based; conditions: Blocker mode; 3 μM
T4 construct: CEREP (CRO panel)
T4 sequence (Q14524 whole entry): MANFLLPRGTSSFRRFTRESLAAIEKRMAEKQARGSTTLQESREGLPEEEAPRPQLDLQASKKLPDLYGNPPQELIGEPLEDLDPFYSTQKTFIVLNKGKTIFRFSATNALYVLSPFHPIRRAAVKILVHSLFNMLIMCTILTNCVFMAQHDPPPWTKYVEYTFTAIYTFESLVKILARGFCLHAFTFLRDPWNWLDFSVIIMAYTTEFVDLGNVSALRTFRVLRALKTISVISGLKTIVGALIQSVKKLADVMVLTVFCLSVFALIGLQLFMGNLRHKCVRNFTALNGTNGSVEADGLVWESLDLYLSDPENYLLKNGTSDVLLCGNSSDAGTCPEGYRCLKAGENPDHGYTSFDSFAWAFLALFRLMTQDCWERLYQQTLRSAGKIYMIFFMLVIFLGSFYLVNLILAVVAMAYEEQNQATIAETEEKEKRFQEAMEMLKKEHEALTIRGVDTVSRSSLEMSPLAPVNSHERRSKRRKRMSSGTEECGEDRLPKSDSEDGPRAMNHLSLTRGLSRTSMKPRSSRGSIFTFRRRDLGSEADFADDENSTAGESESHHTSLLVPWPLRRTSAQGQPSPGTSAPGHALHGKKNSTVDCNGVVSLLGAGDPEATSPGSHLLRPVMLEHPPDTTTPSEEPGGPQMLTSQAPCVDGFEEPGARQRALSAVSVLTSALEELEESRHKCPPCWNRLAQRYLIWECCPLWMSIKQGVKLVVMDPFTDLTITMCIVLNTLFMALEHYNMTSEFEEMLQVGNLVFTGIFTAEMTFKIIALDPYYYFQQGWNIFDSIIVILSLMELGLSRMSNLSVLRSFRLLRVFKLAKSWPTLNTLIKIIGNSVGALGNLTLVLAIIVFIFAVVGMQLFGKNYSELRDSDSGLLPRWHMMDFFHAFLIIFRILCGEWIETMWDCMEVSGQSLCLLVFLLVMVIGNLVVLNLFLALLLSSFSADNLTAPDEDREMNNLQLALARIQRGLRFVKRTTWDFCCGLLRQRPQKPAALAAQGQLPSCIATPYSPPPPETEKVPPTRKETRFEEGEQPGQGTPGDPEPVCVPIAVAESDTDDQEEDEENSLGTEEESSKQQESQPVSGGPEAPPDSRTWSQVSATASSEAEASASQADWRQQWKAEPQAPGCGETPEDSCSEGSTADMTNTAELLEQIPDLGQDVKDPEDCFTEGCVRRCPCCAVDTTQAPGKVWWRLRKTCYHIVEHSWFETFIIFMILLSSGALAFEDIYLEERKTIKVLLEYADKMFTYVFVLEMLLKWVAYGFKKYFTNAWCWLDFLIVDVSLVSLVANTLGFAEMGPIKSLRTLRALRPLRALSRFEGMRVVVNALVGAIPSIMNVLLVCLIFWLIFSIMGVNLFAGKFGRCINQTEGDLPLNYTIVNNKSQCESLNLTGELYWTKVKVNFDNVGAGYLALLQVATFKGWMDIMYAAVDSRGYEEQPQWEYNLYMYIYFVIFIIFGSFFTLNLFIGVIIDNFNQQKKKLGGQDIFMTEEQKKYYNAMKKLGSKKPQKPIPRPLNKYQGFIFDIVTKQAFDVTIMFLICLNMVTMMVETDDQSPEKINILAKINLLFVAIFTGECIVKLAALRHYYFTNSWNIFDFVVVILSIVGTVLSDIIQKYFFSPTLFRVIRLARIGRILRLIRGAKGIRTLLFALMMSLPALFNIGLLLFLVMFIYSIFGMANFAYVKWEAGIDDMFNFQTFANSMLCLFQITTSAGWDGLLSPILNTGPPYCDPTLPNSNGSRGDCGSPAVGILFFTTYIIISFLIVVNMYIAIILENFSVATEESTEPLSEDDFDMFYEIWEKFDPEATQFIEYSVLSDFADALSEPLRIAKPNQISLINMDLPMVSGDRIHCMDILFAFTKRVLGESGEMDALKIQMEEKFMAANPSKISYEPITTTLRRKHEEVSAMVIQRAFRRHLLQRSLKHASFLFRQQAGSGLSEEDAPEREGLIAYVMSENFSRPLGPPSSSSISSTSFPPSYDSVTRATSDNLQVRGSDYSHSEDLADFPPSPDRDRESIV
Source text: as §1

[7] = tested on: 47 human targets; assay: CEREP Safety47 panel (summary); conditions: 3 μM
Source text: as §1

[8] = molecular target: T5, CAV1.2 (Homo sapiens, UniProt Q13936); assay: Safety47 panel ion channel CAV1.2; type: cell-based; conditions: Blocker mode; 3 μM
T5 construct: CEREP (CRO panel)
Source text: as §1

[9] = molecular target: T6, LCK (Homo sapiens, UniProt P06239); assay: Safety47 panel kinase LCK; type: biochemical; conditions: Inhibitor mode; 3 μM
T6 construct: CEREP (CRO, Safety47 panel)
Source text: as §1

[10] = molecular target: Histamine H1 (Homo sapiens, UniProt P35367); assay: Off-target panel, Histamine H1; type: binding; conditions: Conc. 3 μM
[11] = molecular target: Opiate (OP3, MOP) (Homo sapiens, UniProt P35372); assay: Off-target panel, Opiate; type: binding; conditions: Conc. 3 μM
[12] = molecular target: T7, SERT (Homo sapiens, UniProt P31645); assay: Safety47 panel transporter SERT; type: cell-based; conditions: Blocker mode; 3 μM
T7 construct: CEREP (CRO panel)
T7 sequence (P31645 whole entry): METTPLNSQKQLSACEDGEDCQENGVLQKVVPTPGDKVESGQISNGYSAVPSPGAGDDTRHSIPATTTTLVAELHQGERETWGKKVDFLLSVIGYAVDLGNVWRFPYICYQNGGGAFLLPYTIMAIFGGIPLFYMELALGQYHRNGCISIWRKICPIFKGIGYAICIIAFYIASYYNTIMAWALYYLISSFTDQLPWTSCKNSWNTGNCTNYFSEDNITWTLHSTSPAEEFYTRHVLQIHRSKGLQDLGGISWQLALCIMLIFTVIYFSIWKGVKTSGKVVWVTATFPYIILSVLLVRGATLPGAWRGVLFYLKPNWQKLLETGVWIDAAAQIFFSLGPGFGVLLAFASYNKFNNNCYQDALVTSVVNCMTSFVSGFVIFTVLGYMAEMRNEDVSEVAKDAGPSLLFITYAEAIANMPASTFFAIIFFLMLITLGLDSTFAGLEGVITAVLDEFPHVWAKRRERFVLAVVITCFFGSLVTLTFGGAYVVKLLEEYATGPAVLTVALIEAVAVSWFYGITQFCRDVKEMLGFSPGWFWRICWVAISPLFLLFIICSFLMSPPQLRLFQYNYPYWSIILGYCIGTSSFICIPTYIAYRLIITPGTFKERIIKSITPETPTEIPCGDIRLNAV
Source text: as §1

[13] = molecular target: Adrenergic β2 (Homo sapiens, UniProt P07550); assay: Off-target panel, Adrenergic β2; type: binding; conditions: Conc. 3 μM
[14] = molecular target: T8, COX1 (Homo sapiens, UniProt P23219); assay: Safety47 panel non-kinase enzyme COX1; type: biochemical; conditions: Inhibitor mode; 3 μM
T8 construct: CEREP (CRO panel)
Source text: as §1

[15] = molecular target: Transporter, Norepinephrine (NET) (Homo sapiens, UniProt P23975); assay: Off-target panel, Norepinephrine transporter; type: binding; conditions: Conc. 3 μM
[16] = cited from earlier work
[17] = molecular target: Potassium Channel hERG (Homo sapiens, UniProt Q12809)
[18] = molecular target: T9, 15N-labeled PDIa (Homo sapiens, UniProt P07237); assay: 1H-15N HSQC NMR of PDIa; type: binding
T9 construct: His6 (N, cleaved yes); made in house; host or cells: Escherichia coli BL21-Gold (DE3), M9 minimal medium with 15NH4Cl
T9 sequence (P07237 18-134): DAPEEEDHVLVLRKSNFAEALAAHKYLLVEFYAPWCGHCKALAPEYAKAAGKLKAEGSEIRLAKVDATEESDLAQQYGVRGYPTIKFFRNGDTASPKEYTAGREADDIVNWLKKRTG
Method: The ^1H-^15N HSQC spectra were performed on Bruker Avance III 500 Ascend (500 MHz) spectrometers at 300 K. The uniformly ^15N-labeled PDIa was dissolved at 50 μM or 100 μM in 90% H2O/10% D20 (v/v), pH 5.1. The ^1H carrier frequency was positioned at the water resonance. The ^15N carrier frequency was positioned at 115 ppm. The spectral width in the ^1H dimension was 7500 Hz and the width in ω1 (^15N) dimension was 1824.6 Hz. Suppression of water signal was accomplished using the WATERGATE sequence. Heteronuclear decoupling was accomplished using GARP decoupling scheme.

[19] = tested on: five isoforms of CYP450; assay: CYP450 inhibition, five isoforms; type: in vitro ADME
[20] = tested on: neuronal redox state (roGFP2); assay: roGFP2 redox reporter in primary neurons; type: cell-based
Method: […]. Rat coronal brain slice explants co-transfected with YFP and Tau-4R (FIG. 16B) or striatal brain slice explants co-transfected with YFP and mHTT (FIG. 16C) were treated with LC-43 or DMSO carrier-only for 3 days. The respective regions of each brain slice were then scored for numbers of healthy (FIG. 16B) pyramidal or (FIG. 16C) medium spiny neurons remaining. Data are normalized to the negative control condition set to 100% and plotted as means±SEM. In FIG. 16D, The confocal images shown are maximal z-stacks of 0.5 μm steps (˜20 images per stack). (Bottom) Reduction of neuronal redox state by LC-43. Left, Primary neurons were co-transfected with mCherry (to positively identify transfected neurons) and the genetically encoded ratiometric redox reporter roGFP2. Four days later, the culture medium was changed into an identical formulation except without conventional antioxidant additives. 24 hours after this medium change, LOC-43 or DMSO carrier-only were added to the neurons and images were taken after 30 minutes or 24 hours of treatment as indicated. Imaging was done using a Leica SP5 inverted confocal microscope through a 63× water-immersion objective. Images of 40 individual neurons for each condition were collected at 405 and 488 nm and analysis of the 405/488 ratio for each image pair was done using CellProfiler (Broad Institute).
As mentioned, we synthesized several fluorine-containing analogs of LOC14 (analogs LC-43 and LC-40). Addition of fluorine was the only modification that was tolerated at the ortho position without a complete loss of activity in cells and in targeting PDI in vitro (Table 9). […] Additionally, we evaluated LC-43 using a genetically encoded redox reporter transfected into neurons. […] In contrast, treatment with the non-selective reducing agent dithiothreitol (DTT) produces an immediate and dramatic reduction in the roGFP2 fluorescence ratio that leads rapidly to cell degeneration and death (FIG. 16D). […]

[21] = molecular target: PDI (Homo sapiens, UniProt P07237); assay: Enzymatic assay for inhibition of PDI using insulin as substrate; type: biochemical
Chain of PDI (P07237 18-508): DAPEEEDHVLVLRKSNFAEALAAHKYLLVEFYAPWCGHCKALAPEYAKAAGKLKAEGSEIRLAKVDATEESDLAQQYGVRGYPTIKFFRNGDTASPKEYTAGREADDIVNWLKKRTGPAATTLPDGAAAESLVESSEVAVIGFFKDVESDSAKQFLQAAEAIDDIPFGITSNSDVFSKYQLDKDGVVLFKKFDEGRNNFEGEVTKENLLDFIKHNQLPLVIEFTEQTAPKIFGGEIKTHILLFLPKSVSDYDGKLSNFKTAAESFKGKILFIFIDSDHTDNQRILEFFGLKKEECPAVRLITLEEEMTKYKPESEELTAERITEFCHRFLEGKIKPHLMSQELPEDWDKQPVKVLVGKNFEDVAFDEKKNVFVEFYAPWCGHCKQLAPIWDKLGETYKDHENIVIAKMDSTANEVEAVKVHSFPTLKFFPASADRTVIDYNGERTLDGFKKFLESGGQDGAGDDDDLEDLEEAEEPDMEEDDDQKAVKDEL

T1 sequence (P06213 28-1382): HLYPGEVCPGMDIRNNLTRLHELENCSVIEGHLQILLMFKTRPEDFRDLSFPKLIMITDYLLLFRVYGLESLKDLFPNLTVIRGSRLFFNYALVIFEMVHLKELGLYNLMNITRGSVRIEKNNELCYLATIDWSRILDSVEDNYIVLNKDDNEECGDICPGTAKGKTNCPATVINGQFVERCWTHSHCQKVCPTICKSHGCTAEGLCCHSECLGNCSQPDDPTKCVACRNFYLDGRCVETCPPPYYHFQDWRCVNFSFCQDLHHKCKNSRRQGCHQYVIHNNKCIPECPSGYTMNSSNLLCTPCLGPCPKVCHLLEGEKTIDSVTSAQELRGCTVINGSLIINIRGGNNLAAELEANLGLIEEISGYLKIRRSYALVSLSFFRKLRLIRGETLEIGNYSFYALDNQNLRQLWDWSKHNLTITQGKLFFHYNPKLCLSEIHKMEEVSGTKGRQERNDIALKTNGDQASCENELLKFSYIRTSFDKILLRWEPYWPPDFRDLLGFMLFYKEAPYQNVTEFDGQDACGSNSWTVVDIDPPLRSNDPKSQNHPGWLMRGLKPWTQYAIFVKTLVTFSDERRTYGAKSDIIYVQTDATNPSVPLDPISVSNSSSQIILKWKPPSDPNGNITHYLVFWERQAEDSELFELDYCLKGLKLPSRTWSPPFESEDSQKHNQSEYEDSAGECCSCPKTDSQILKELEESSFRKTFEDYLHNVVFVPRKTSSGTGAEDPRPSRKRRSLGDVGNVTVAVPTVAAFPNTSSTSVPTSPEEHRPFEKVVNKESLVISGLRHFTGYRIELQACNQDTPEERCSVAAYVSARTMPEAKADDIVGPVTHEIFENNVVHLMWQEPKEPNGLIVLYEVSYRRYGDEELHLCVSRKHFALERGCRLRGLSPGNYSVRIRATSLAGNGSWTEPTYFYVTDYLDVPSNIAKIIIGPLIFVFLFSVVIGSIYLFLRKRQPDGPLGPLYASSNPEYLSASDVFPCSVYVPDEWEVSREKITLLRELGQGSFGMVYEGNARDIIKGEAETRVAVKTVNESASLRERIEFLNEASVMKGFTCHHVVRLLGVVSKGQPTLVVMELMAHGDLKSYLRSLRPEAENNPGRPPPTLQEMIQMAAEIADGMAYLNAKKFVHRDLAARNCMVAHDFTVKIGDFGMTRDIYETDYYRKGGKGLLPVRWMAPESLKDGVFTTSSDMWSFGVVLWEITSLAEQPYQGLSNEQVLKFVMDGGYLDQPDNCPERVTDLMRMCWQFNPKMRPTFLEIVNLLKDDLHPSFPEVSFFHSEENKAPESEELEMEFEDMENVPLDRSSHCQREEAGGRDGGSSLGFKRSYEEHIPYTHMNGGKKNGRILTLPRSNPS

Compound: O=C(C1CC1)N1CCN(Cn2sc3ccccc3c2=O)CC1 [LOC14]
- Average [1]: 22.7
- Average [2]: 17.2
- inhibition at 3 µM [3]: 8%
- inhibition at 3 µM [4]: 0%
- Average ([5]; Blocker mode): 0.0
- Average ([5]; Opener mode): 2.5
- Average [6]: 7.0
- off-target effects in Safety47 panel [7]: no significant off-target effects
- Average [8]: 1.2
- Average [9]: 16.1
- inhibition at 3 µM [10]: 27%
- inhibition at 3 µM [11]: -1%
- Average [12]: 5.0
- inhibition at 3 µM [13]: 8%
- Average [14]: 1.4
- inhibition at 3 µM [15]: 24%
- tolerated dose ([16]; in mice): 20 mg/kg
- oral bioavailability ([16]; mouse, in vivo, po): orally bioavailable
- blood-brain-barrier penetration ([16]; mouse, in vivo): blood-brain-barrier penetrant
- half-life in the brain ([16]; via oral gavage): 2.2 h
- binding to the hERG receptor [17]: does not bind to the hERG receptor

Compound: O=C(C1CC1)N1CCN(Cn2sc3c(F)cccc3c2=O)CC1 [LC-43]
- chemical shift changes in PDIa (1H-15N HSQC) [18]: same chemical shift changes in the active site as induced by LOC14
- inhibition of the five isoforms of CYP450 [19]: does not show any inhibition
- neuronal redox state (roGFP2) ([20]; 30 min treatment): no effect
- neuronal redox state (roGFP2) ([20]; 24 h treatment, 10 μM): measurable and significant reduction in neuronal redox state
- inhibition of enzymatic (reductase) activity of PDI [21]: able to inhibit the enzymatic activity of PDI
